Measurements from ChEMBL document CHEMBL1201862, “PubChem BioAssay data set” (2004).
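Protocol summary: plate cells (96-well), add compound at 5 concentrations, incubate 48 h, interpolate endpoints linearly. GI50: concentration for 50% inhibition of growth.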 Calls of active or inactive are those of the source. Rule as the data show it: active = GI50 up to about 1.1 µM and inactive = higher.

Tests used:
Assay in all cases: growth of human tumour cells (NCI), 48 h
A498 = test system: A498
HCT-116 = test system: HCT-116
HCT-15 = test system: HCT-15
HL-60 = test system: HL-60
K562 = test system: K562
KM12 = test system: KM12
LXFL 529 = test system: LXFL 529
Malme-3M = test system: Malme-3M
NCI-H522 = test system: NCI-H522
OVCAR-3 = test system: OVCAR-3
OVCAR-4 = test system: OVCAR-4
OVCAR-5 = test system: OVCAR-5
SF-539 = test system: SF-539
SK-MEL-2 = test system: SK-MEL-2
SK-MEL-5 = test system: SK-MEL-5
SR = test system: SR
SW-620 = test system: SW-620
UO-31 = test system: UO-31
IGROV-1 = test system: IGROV-1
OVCAR-8 = test system: OVCAR-8

Compound | GI50 (A498) | GI50 (HCT-116) | GI50 (HCT-15) [µM] | GI50 (HL-60) | GI50 (K562) | GI50 (KM12) | GI50 (LXFL 529) | GI50 (Malme-3M) | GI50 (NCI-H522) | GI50 (OVCAR-3) | GI50 (OVCAR-4) | GI50 (OVCAR-5) | GI50 (SF-539) | GI50 (SK-MEL-2) | GI50 (SK-MEL-5) | GI50 (SR) | GI50 (SW-620) | GI50 (UO-31) | GI50 (IGROV-1) | GI50 (OVCAR-8)
Cc1cccc(C(C)C)c1NC(=O)CCl | > 100 µM (inactive) | 50.2 µM (inactive) | 90.4 | 39.9 µM (inactive) | 56.2 µM (inactive) | 55.7 µM (inactive) | 76.7 µM (inactive) | 81.7 µM (inactive) | 15.3 µM (inactive) | 19.1 µM (inactive) | 29.4 µM (inactive) | > 100 µM (inactive) | > 100 µM (inactive) | 75.5 µM (inactive) | 91.4 µM (inactive) | 47.8 µM (inactive) | 39.6 µM (inactive) | > 100 µM (inactive) |  | 
COc1ccc(NC(=O)C2C(=O)N(c3ccc(OC)cc3)C(=O)/C2=N/O)cc1 (stereo not drawn) | 30.7 µM (inactive) | 21.6 µM (inactive) | > 100 | > 100 µM (inactive) | > 100 µM (inactive) | 23 µM (inactive) | 25.2 µM (inactive) | 20.4 µM (inactive) | 22.7 µM (inactive) | 24.7 µM (inactive) | 17.2 µM (inactive) | > 100 µM (inactive) | 19.6 µM (inactive) | 32.2 µM (inactive) |  | > 100 µM (inactive) | > 61.9 µM (inactive) | 22.2 µM (inactive) | 40.1 µM (inactive) | 18 µM (inactive)
c1ccc2c(c1)N=C(c1cccc3ccccc13)CC(c1ccc3c(c1)OCO3)S2 (stereo not drawn) | 49 µM (inactive) | > 100 µM (inactive) |  | > 100 µM (inactive) | > 100 µM (inactive) | > 100 µM (inactive) | > 100 µM (inactive) | 70.6 µM (inactive) | > 100 µM (inactive) | > 100 µM (inactive) | > 100 µM (inactive) | > 100 µM (inactive) | > 100 µM (inactive) | > 100 µM (inactive) | > 100 µM (inactive) | > 100 µM (inactive) | > 100 µM (inactive) | > 100 µM (inactive) | > 100 µM (inactive) | > 100 µM (inactive)
CC(=O)/C(=N\O)C(=O)NCc1ccccc1 | > 100 µM (inactive) | > 100 µM (inactive) | 35.9 | > 100 µM (inactive) | 36.4 µM (inactive) | > 100 µM (inactive) | > 100 µM (inactive) | > 100 µM (inactive) | > 100 µM (inactive) | > 100 µM (inactive) |  | > 100 µM (inactive) | > 100 µM (inactive) | > 100 µM (inactive) | > 100 µM (inactive) | > 100 µM (inactive) | 15.9 µM (inactive) | > 100 µM (inactive) | > 100 µM (inactive) | > 100 µM (inactive)
O=C(CN1CCN(c2ccccc2)CC1)N1CCc2c([nH]c3ccccc23)C1c1cccnc1 (stereo not drawn) | > 100 µM (inactive) | 14.5 µM (inactive) | 57.3 | 30.9 µM (inactive) | > 76.4 µM (inactive) | 97.3 µM (inactive) | 71.9 µM (inactive) | > 100 µM (inactive) | 29.3 µM (inactive) | 64.9 µM (inactive) | > 29.4 µM (inactive) | > 100 µM (inactive) | 16.7 µM (inactive) | > 100 µM (inactive) | 51.3 µM (inactive) | > 100 µM (inactive) | > 66.8 µM (inactive) | > 58.3 µM (inactive) | > 100 µM (inactive) | 24.4 µM (inactive)
CCCCCCCCCCSS(=O)(=O)c1ccc(C)cc1 | 18.5 µM (inactive) | 12.5 µM (inactive) | 13 | 2.43 µM (inactive) | 12.1 µM (inactive) | 9.64 µM (inactive) | 13.6 µM (inactive) | 15.6 µM (inactive) | 6.4 µM (inactive) | 18.6 µM (inactive) | 15.6 µM (inactive) | 15.9 µM (inactive) | 1.87 µM (inactive) | 5.01 µM (inactive) | 5.36 µM (inactive) | 3.6 µM (inactive) | 14.3 µM (inactive) | 15 µM (inactive) | 15.1 µM (inactive) | 14.1 µM (inactive)
CC[C@]12C=CCN3CCC4(c5cc([C@@]6(C(=O)OC)CC7CN(CCc8c6[nH]c6ccccc86)C[C@@H]6CCCC[C@H]76)c(OC)cc5N(C)C4[C@](O)(C(=O)OC)C1OC(C)=O)[C@@H]32 (stereo partly drawn) | < 0.01 µM (active) | < 0.01 µM (active) | < 0.01 | < 0.01 µM (active) |  | < 0.01 µM (active) | < 0.01 µM (active) | < 0.01 µM (active) | < 0.01 µM (active) | < 0.01 µM (active) | 5.2 µM (inactive) |  | < 0.01 µM (active) | < 0.01 µM (active) | < 0.01 µM (active) | < 0.01 µM (active) | < 0.01 µM (active) | < 0.0299 µM (active) | < 0.01 µM (active) | < 0.01 µM (active)
CCCCCCCCCC[C@@H](O)[C@@H]1CC[C@@H]([C@@H]2CC[C@@H]([C@@H](O)CCCCCCCCCC[C@H](O)CC3=CC(C)OC3=O)O2)O1 (stereo partly drawn) | 1.7 µM (inactive) | 1.91 µM (inactive) | 3.45 | 0.102 µM (active) | 0.0318 µM (active) | 2.16 µM (inactive) | 3.82 µM (inactive) | 1.79 µM (inactive) | 1.72 µM (inactive) | 3.94 µM (inactive) | 6.28 µM (inactive) | 9.25 µM (inactive) | 4.5 µM (inactive) | 6.71 µM (inactive) | 0.0385 µM (active) | 2.05 µM (inactive) | 3.78 µM (inactive) | 1.25 µM (inactive) | 3.48 µM (inactive) | 2.65 µM (inactive)
